Measurements: article PMC10287555, “Camonsertib in DNA damage response-deficient advanced solid tumors: phase 1 trial results” (Nature Medicine, 2023)

Test: Treatment-emergent adverse events (TEAEs), TRESR
Type: in vivo, human
Protocol: Tolerability and safety of camonsertib was evaluated by assessment of AEs, TEAEs, serious adverse events (SAEs), DLTs, concomitant medications and procedures, physical examinations, vital sign measurements, clinical safety laboratory evaluations (hematology, chemistry and urinalysis), ECOG performance status scores and electrocardiograms.
All safety and efficacy endpoints were summarized with descriptive statistics. Safety data were summarized using the safety population, which consisted of all patients who received at least one dose of RP-3500. The DLT rate was based on the DLT-evaluable population, which included those patients in dose-escalation cohorts (M1a and M1b only) receiving ≥80% of planned doses of camonsertib, who completed all required safety evaluations and were observed through the end of cycle 1 or patients who experienced a DLT. Due to the different number of dose levels expected and the exploratory nature of the phase 1 study, anti-tumor activity parameters were primarily based on patients who received ≥1 dose of RP-3500 and had ≥1 post-baseline tumor assessment by RECIST 1.1 and/or GCIG CA-125 or PCWG3 PSA criteria, with an initial dose level of >100 mg d^−1 (dose level predicted to achieve efficacious exposure), as defined in the statistical analysis plan. Additional subgroups based on tumor types or genotypes of interest were based on this efficacy analysis set. […] Patients were, therefore, enrolled in the study and endpoints assessed regardless of sex, gender and race. No formal statistical tests were performed in this study. However, nominal P values (two-sided) were provided for the hypothesis-generating purpose of selected exploratory endpoints, without adjusting for multiplicity. A log-rank test was used in between-group comparisons for the time-to-event endpoints (PFS and DOT), and Fisher’s exact test was used in between-group comparisons for the binary endpoints (CBR, MR, etc.).

[1] = 3/4 schedule (n = 95), all grades
[2] = 3/4 schedule (n = 95), grade 3+
[3] = 5/2 schedule (n = 25), all grades
[4] = 5/2 schedule (n = 25), grade 3+

## C[C@@H]1COCCN1c1cc([C@]2(O)C[C@H]3CC[C@@H](C2)O3)c2cnn(-c3cc[nH]n3)c2n1 [camonsertib]
[1]
  Any TEAE: 92 (96.8) n (%)
  TEAE: Abdominal pain: 15 (15.8) n (%)
  TEAE: Anemia: 63 (66.3) n (%)
  TEAE: Blood creatinine increased: 8 (8.4) n (%)
  TEAE: Constipation: 13 (13.7) n (%)
  TEAE: Decreased appetite: 21 (22.1) n (%)
  TEAE: Diarrhea: 20 (21.1) n (%)
  TEAE: Dizziness: 11 (11.6) n (%)
  TEAE: Dyspnea: 18 (18.9) n (%)
  TEAE: Fatigue: 34 (35.8) n (%)
  TEAE: Nausea: 31 (32.6) n (%)
  TEAE: Neutrophil count decreased/neutropenia: 27 (28.4) n (%)
  TEAE: Platelet count decreased/ thrombocytopenia: 25 (26.3) n (%)
  TEAE: Vomiting: 16 (16.8) n (%)
  TEAE: White blood cell count decreased: 11 (11.6) n (%)
[2]
  Any TEAE: 51 (53.7) n (%)
  TEAE: Abdominal pain: 0 n (%)
  TEAE: Anemia: 28 (29.5) n (%)
  TEAE: Blood creatinine increased: 0 n (%)
  TEAE: Constipation: 0 n (%)
  TEAE: Decreased appetite: 0 n (%)
  TEAE: Diarrhea: 0 n (%)
  TEAE: Dizziness: 0 n (%)
  TEAE: Dyspnea: 2 (2.1) n (%)
  TEAE: Fatigue: 2 (2.1) n (%)
  TEAE: Nausea: 3 (3.2) n (%)
  TEAE: Neutrophil count decreased/neutropenia: 13 (13.7) n (%)
  TEAE: Platelet count decreased/ thrombocytopenia: 8 (8.4) n (%)
  TEAE: Vomiting: 3 (3.2) n (%)
  TEAE: White blood cell count decreased: 4 (4.2) n (%)
[3]
  Any TEAE: 25 (100.0) n (%)
  TEAE: Abdominal pain: 3 (12.0) n (%)
  TEAE: Anemia: 21 (84.0) n (%)
  TEAE: Blood creatinine increased: 4 (16.0) n (%)
  TEAE: Constipation: 5 (20.0) n (%)
  TEAE: Decreased appetite: 6 (24.0) n (%)
  TEAE: Diarrhea: 3 (12.0) n (%)
  TEAE: Dizziness: 2 (8.0) n (%)
  TEAE: Dyspnea: 8 (32.0) n (%)
  TEAE: Fatigue: 10 (40.0) n (%)
  TEAE: Nausea: 8 (32.0) n (%)
  TEAE: Neutrophil count decreased/neutropenia: 6 (24.0) n (%)
  TEAE: Platelet count decreased/ thrombocytopenia: 8 (32.0) n (%)
  TEAE: Vomiting: 4 (16.0) n (%)
  TEAE: White blood cell count decreased: 3 (12.0) n (%)
[4]
  Any TEAE: 19 (76.0) n (%)
  TEAE: Abdominal pain: 0 n (%)
  TEAE: Anemia: 14 (56.0) n (%)
  TEAE: Blood creatinine increased: 0 n (%)
  TEAE: Constipation: 0 n (%)
  TEAE: Decreased appetite: 0 n (%)
  TEAE: Diarrhea: 0 n (%)
  TEAE: Dizziness: 0 n (%)
  TEAE: Dyspnea: 0 n (%)
  TEAE: Fatigue: 1 (4.0) n (%)
  TEAE: Nausea: 0 n (%)
  TEAE: Neutrophil count decreased/neutropenia: 4 (16.0) n (%)
  TEAE: Platelet count decreased/ thrombocytopenia: 3 (12.0) n (%)
  TEAE: Vomiting: 0 n (%)
  TEAE: White blood cell count decreased: 0 n (%)
